# Target: T1, HDM2 (Homo sapiens, UniProt Q00987)
# T1 construct: Thioredoxin (N); made in house; host or cells: E. coli strain BL21(DE3)Rosetta
# Assay: HDM2 FRET assay (inhibition of binding of FITC labeled p53-pocket peptide to HDM2)
# Details: FRET IC50
# Procedure, shortened: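 Compounds were tested in 10-point serial dilution against 0.5 nM recombinant HDM2 binding 3 nM fluorescein-labeled p53-pocket peptide. Detection used 0.25 nM terbium cryptate anti-6xHis antibody in PBS buffer containing 0.01% BSA and 0.01% Tween-20.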
# T1 sequence (Q00987 17-125): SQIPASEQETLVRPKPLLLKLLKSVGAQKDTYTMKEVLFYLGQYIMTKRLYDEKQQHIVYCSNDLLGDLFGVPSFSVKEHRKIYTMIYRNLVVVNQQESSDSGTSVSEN
row,SMILES,IC50
1,"C[C@@H](Nc1nc(C(=O)O)nc2nc(N3C4CCCC3CC4)n(C[C@H]3CC[C@H](C)CC3)c12)C1CCC1 [Example 11.26, 8-(8-azabicyclo[3.2.1]oct-8-yl)-6-{[(1R)-1-cyclobutylethyl]amino}-7-[(trans-4-methylcyclohexyl)methyl]-7H-purine-2-carboxylic acid]",3.57 nM

# Same assay, conditions: Table 11; read-out: FRET IC50
row,SMILES,IC50
1,"C[C@@H](Nc1nc(C(=O)O)nc2nc(N3CCCCC3c3cccc(F)c3)n(C[C@H]3CC[C@H](C)CC3)c12)C1CCC1 (stereo partly drawn) [Example 11.16, 6-{[(1R)-1-cyclobutylethyl]amino}-8-[2-(3-fluorophenyl)piperidin-1-yl]-7-[(trans-4-methylcyclohexyl)methyl]-7H-purine-2-carboxylic acid]",2.84 nM
2,"C[C@@H](Nc1nc(C(=O)O)nc2nc(N3CCc4ccccc4C3)n(C[C@H]3CC[C@H](C)CC3)c12)C1CCC1 [Example 11.17, 6-{[(1R)-1-cyclobutylethyl]amino}-8-(3,4-dihydroisoquinolin-2(1H)-yl)-7-[(trans-4-methylcyclohexyl)methyl]-7H-purine-2-carboxylic acid]",17.9 nM
3,"C[C@@H](Nc1nc(C(=O)O)nc2nc(N3CCCCC3c3ccc(F)cc3)n(C[C@H]3CC[C@H](C)CC3)c12)C1CCC1 (stereo partly drawn) [Example 11.18, 6-{[(1R)-1-cyclobutylethyl]amino}-8-[2-(4-fluorophenyl)piperidin-1-yl]-7-[(trans-4-methylcyclohexyl)methyl]-7H-purine-2-carboxylic acid]",4.42 nM
4,"C[C@@H](Nc1nc(C(=O)O)nc2nc(N3CCCCC3c3cccnc3)n(C[C@H]3CC[C@H](C)CC3)c12)C1CCC1 (stereo partly drawn) [Example 11.19, 6-{[(1R)-1-cyclobutylethyl]amino}-7-[(trans-4-methylcyclohexyl)methyl]-8-(2-pyridin-3-ylpiperidin-1-yl)-7H-purine-2-carboxylic acid]",0.895 nM
5,"C[C@@H](Nc1nc(C(=O)O)nc2nc(N3CCCC4CCCCC43)n(C[C@H]3CC[C@H](C)CC3)c12)C1CCC1 (stereo partly drawn) [Example 11.20, 6-{[(1R)-1-cyclobutylethyl]amino}-7-[(trans-4-methylcyclohexyl)methyl]-8-(octahydroquinolin-1(2H)-yl)-7H-purine-2-carboxylic acid]",1.34 nM
6,"C[C@@H](Nc1nc(C(=O)O)nc2nc(N3CCCCC3c3ccccn3)n(C[C@H]3CC[C@H](C)CC3)c12)C1CCC1 (stereo partly drawn) [Example 11.21, 6-{[(1R)-1-cyclobutylethyl]amino}-7-[(trans-4-methylcyclohexyl)methyl]-8-(2-pyridin-2-ylpiperidin-1-yl)-7H-purine-2-carboxylic acid]",2.72 nM
7,"C[C@@H](Nc1nc(C(=O)O)nc2nc(N3CCC4CCCCC4C3)n(C[C@H]3CC[C@H](C)CC3)c12)C1CCC1 (stereo partly drawn) [Example 11.22, 6-{[(1R)-1-cyclobutylethyl]amino}-7-[(trans-4-methylcyclohexyl)methyl]-8-(octahydroisoquinolin-2(1H)-yl)-7H-purine-2-carboxylic acid]",18 nM
8,"C[C@@H](Nc1nc(C(=O)O)nc2nc(N3CCCC4CCCCC43)n(C[C@H]3CC[C@H](C)CC3)c12)C1CCC1 (stereo partly drawn) [Example 11.23, 6-{[(1R)-1-cyclobutylethyl]amino}-7-[(trans-4-methylcyclohexyl)methyl]-8-(octahydroquinolin-1(2H)-yl)-7H-purine-2-carboxylic acid]",3.11 nM
9,"C[C@@H](Nc1nc(C(=O)O)nc2nc(N3CCCC3c3cccc(F)c3)n(C[C@H]3CC[C@H](C)CC3)c12)C1CCC1 (stereo partly drawn) [Example 11.28, 6-{[(1R)-1-cyclobutylethyl]amino}-8-[2-(3-fluorophenyl)pyrrolidin-1-yl]-7-[(trans-4-methylcyclohexyl)methyl]-7H-purine-2-carboxylic acid]",1.52 nM
10,"CC1CCCCN1c1nc2nc(C(=O)O)nc(N[C@H](C)C3CCC3)c2n1C[C@H]1CC[C@H](C)CC1 (stereo partly drawn) [Example 11.29, 6-{[(1R)-1-cyclobutylethyl]amino}-7-[(trans-4-methylcyclohexyl)methyl]-8-(2-methylpiperidin-1-yl)-7H-purine-2-carboxylic acid]",2.23 nM
